This is an account of results in patent US20120040955A1 (priority 2009, published 2012).

For assay [1] the following is noted: NOD mouse model of type I diabetes; cited from earlier work.
The conditions of assay [2]: reviewed in Cetkovic-Cvrlje and Ucken, 2004; cited from earlier work.
The next assay deals with T1, JAK2 (Homo sapiens, UniProt O60674).
T1 construct: endogenous in cells; host or cells: Mixed Molt4 / Ramos cell lysate (1:2)
Kind of assay: kinobeads assay (competition with affinity matrix in mixed Molt4/Ramos cell lysate, dot blot detection), JAK2. The conditions noted are these: activity level. The class given is binding. The protocol: (§1) The compounds of the present invention as described in the previous examples were tested in a kinobeads assay as described for ZAP-70 (WO-A 2007/137867). Briefly, test compounds (at various concentrations) and the affinity matrix with the immobilized aminopyrido-pyrimidine ligand 24 were added to cell lysate aliquots and allowed to bind to the proteins in the lysate sample. After the incubation time the beads with captured proteins were separated from the lysate. Bound proteins were then eluted and the presence of, JAK2 and JAK3 was detected and quantified using specific antibodies in a dot blot procedure and the Odyssey infrared detection system. Dose response curves for individual kinases were generated and IC50 values calculated. Kinobeads assays for ZAP-70 (WO-A 2007/137867) and for kinase selectivity profiling (WO-A 2006/134056) have been previously described.
(§2) 5× DP buffer: 250 mM Tris-HCl pH 7.4, 25% Glycerol, 7.5 mM MgCl2, 750 mM NaCl, 5 mM Na3VO4; filter the 5× DP buffer through a 0.22 μm filter and store in aliquots at −80° C. The 5× DP buffer is diluted with H2O to 1× DP buffer containing 1 mM DTT and 25 mM NaF.
(§3) Stock solutions of test compounds were prepared in DMSO. In a 96 well plate 30 μl solution of diluted test compounds at 5 mM in DMSO were prepared. Starting with this solution a 1:3 dilution series (9 steps) was prepared. For control experiments (no test compound) a buffer containing 2% DMSO was used.
(§4) Molt4 cells (ATCC catalogue number CRL-1582) and Ramos cells (ATCC catalogue number CRL-1596) were grown in 1 litre Spinner flasks (Integra Biosciences, #182101) in suspension in RPMI 1640 medium (Invitrogen, #21875-034) supplemented with 10% Fetal Bovine Serum (Invitrogen) at a density between 0.15×10^6 and 1.2×10^6 cells/ml. Cells were harvested by centrifugation, washed once with 1× PBS buffer (Invitrogen, #14190-094) and cell pellets were frozen in liquid nitrogen and subsequently stored at −80° C. Cells were homogenized in a Potter S homogenizer in lysis buffer: 50 mM Tris-HCl, 0.8% NP40, 5% glycerol, 150 mM NaCl, 1.5 mM MgCl2, 25 mM NaF, 1 mM sodium vanadate, 1 mM DTT, pH 7.5. One complete EDTA-free tablet (protease inhibitor cocktail, Roche Diagnostics, 1873580) per 25 ml buffer was added. The material was dounced 10 times using a mechanized POTTER S, transferred to 50 ml falcon tubes, incubated for 30 minutes on ice and spun down for 10 min at 20,000 g at 4° C. (10,000 rpm in Sorvall SLA600, precooled). The supernatant was transferred to an ultracentrifuge (UZ)-polycarbonate tube (Beckmann, 355654) and spun for 1 hour at 100.000 g at 4° C. (33.500 rpm in Ti50.2, precooled). The supernatant was transferred again to a fresh 50 ml falcon tube, the protein concentration was determined by a Bradford assay (BioRad) and samples containing 50 mg of protein per aliquot were prepared. The samples were immediately used for experiments or frozen in liquid nitrogen and stored frozen at −80° C.
(§5) Cell lysate (approximately 50 mg protein per plate) was thawed in a water bath at room temperature and then kept on ice. To the thawed cell lysate 1× DP 0.8% NP40 buffer containing protease inhibitors (1 tablet for 25 ml buffer; EDTA-free protease inhibitor cocktail; Roche Diagnostics 1873580) was added in order to reach a final protein concentration of 5 mg/ml total protein. The diluted cell lysate was stored on ice. Mixed Molt4/Ramos lysate was prepared by combining one volume of Molt4 lysate and two volumes of Ramos lysate (ratio 1:2).
(§6) To a 96 well filter plate (Multiscreen HTS, BV Filter Plates, Millipore #MSBVN1250) were added per well: 100 μl affinity matrix (3% beads slurry), 3 μl of compound solution, and 50 μl of diluted lysate. Plates were sealed and incubated for three hours in a cold room on a plate shaker (Heidolph tiramax 1000) at 750 rpm. Afterwards the plate was washed twice with 230 μl washing buffer (1× DP 0.4% NP40). […]

In a further assay the target is T2, JAK3 (Homo sapiens, UniProt P52333).
T2 construct: endogenous in cells; host or cells: Mixed Molt4 / Ramos cell lysate (1:2)
T2 sequence (P52333 1-1124): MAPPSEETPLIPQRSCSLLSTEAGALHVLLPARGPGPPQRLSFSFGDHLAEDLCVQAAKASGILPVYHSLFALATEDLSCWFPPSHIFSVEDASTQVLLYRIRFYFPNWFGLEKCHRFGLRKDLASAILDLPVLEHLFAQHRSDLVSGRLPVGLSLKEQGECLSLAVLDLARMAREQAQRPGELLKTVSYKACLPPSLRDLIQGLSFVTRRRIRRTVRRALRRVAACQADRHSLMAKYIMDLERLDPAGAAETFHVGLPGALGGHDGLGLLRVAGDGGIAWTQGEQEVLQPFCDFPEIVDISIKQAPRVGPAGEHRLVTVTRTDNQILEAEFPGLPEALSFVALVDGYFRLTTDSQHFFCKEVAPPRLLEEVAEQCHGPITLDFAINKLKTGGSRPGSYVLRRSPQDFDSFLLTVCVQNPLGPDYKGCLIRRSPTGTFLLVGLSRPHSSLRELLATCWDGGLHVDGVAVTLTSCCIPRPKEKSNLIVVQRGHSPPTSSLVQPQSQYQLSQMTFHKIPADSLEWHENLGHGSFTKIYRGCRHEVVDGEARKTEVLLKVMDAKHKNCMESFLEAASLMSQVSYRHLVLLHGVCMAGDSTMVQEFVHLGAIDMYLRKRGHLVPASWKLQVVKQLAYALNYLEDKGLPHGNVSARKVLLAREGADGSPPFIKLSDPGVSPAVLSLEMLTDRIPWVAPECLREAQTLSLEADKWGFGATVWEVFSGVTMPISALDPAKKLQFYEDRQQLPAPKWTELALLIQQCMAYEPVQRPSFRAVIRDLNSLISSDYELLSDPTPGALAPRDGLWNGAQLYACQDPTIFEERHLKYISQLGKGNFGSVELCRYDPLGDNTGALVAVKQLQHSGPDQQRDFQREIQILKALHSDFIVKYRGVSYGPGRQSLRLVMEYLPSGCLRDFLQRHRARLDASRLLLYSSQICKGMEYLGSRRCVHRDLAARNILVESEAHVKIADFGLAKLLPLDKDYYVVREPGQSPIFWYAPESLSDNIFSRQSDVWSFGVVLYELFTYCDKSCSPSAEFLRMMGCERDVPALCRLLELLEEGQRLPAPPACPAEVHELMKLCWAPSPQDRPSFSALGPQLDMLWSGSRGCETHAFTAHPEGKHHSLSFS
The assay can be described thus: kinobeads assay (competition with affinity matrix in mixed Molt4/Ramos cell lysate, dot blot detection), JAK3. The format is binding. The conditions noted are these: activity level. As for the experimental part:
as §1, §2, §3, §4, §5, §6

For assay [3] the following is noted: Changelian et al., 2003; cited from earlier work.

Structures are written as SMILES. Bounds are passed on as bounds.

T1 sequence (O60674 whole entry): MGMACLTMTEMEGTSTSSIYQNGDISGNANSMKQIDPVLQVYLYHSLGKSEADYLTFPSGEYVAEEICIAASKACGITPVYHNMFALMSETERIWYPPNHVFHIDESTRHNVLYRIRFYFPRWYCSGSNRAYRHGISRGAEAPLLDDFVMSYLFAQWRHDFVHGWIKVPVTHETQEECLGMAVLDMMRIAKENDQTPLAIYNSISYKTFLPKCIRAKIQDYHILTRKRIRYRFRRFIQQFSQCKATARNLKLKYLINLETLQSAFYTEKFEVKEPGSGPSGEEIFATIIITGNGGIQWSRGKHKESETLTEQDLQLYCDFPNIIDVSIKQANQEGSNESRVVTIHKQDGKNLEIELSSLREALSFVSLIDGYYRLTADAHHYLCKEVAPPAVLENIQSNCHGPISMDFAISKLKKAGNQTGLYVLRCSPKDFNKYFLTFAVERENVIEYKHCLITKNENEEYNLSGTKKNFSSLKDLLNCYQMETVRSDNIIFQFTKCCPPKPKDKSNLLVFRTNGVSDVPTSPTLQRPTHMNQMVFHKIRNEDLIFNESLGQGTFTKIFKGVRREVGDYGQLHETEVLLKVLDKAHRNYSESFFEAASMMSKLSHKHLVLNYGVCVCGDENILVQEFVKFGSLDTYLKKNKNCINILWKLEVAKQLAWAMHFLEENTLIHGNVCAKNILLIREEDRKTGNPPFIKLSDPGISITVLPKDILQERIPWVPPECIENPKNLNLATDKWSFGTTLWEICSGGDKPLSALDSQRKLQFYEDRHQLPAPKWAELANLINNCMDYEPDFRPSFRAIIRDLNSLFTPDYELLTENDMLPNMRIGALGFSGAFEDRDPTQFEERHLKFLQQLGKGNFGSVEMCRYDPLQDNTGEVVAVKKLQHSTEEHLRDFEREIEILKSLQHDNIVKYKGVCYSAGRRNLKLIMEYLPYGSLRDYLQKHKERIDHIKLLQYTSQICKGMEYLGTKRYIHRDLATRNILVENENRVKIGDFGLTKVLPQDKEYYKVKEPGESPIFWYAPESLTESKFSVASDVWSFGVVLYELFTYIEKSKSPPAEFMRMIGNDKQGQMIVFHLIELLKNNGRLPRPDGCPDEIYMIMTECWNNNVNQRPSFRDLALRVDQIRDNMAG

`COc1cc2ncnc(Nc3ccc(O)cc3)c2cc1OC` [JANEX-1]: the “spontaneous autoimmune diabetes development” value in assay [1] is on record as “prevent spontaneous autoimmune diabetes development”. Moreover, in assay [2], the “severity of GVHD” value was “attenuate the severity of GVHD”. Consider `COc1ccc(Nc2nc(Nc3cc(-n4cnnn4)ccc3F)ncc2F)c(NS(C)(=O)=O)c1` [Example 5, N-(2-(5-fluoro-2-(2-fluoro-5-(1H-tetrazol-1-yl)phenylamino)pyrimidin-4-ylamino)-5-methoxyphenyl)methanesulfonamide], for which the IC50 at JAK2 is 1000 to 10000 nM; at JAK3 it was less than 100 nM.

`COCCNC(=O)c1ccc(F)c(Nc2ncc(Cl)c(Nc3ccccc3NS(C)(=O)=O)n2)c1` [Example 53, 3-(5-chloro-4-(2-(methylsulfonamido)phenylamino)pyrimidin-2-ylamino)-4-fluoro-N-(2-methoxyethyl)benzamide]: the IC50 is more than 10000 nM at JAK2 and less than 100 nM at JAK3.

As to `CS(=O)(=O)Nc1ccccc1Nc1nc(Nc2cc(C(=O)N3CCOCC3)ccc2F)ncc1Cl` [Example 54, N-(2-(5-chloro-2-(2-fluoro-5-(morpholine-4-carbonyl)phenylamino)pyrimidin-4-ylamino)phenyl)methanesulfonamide], the results for the IC50 at JAK2 and at JAK3 were more than 10000 nM and less than 100 nM, respectively. `CS(=O)(=O)Nc1ccccc1Nc1nc(Nc2cc(F)c(C(=O)NC3CC3)cc2F)ncc1Cl` [Example 57, 4-((5-chloro-4-((2-(methylsulfonamido)phenyl)amino)pyrimidin-2-yl)amino)-N-cyclopropyl-2,5-difluorobenzamide]: the values for the IC50 at JAK2 and on JAK3 were more than 10000 nM and less than 100 nM, respectively. As to `CS(=O)(=O)Nc1ccccc1Nc1nc(Nc2cc(C(=O)N3CCCCC3)ccc2F)ncc1Cl` [Example 17, N-(2-(5-chloro-2-(2-fluoro-5-(piperidine-1-carbonyl)phenylamino)pyrimidin-4-ylamino)phenyl)methanesulfonamide], the IC50 at JAK2 was 1000 to 10000 nM; on JAK3, less than 100 nM. For `C[C@@H]1CCN(C(=O)CC#N)C[C@@H]1N(C)c1ncnc2[nH]ccc12` [CP-690,550], the “efficacy in an animal model of organ transplantation” value in assay [3] is given as “show efficacy”. Consider `CC(C)NC(=O)c1ccc(F)c(Nc2ncc(F)c(Nc3ccccc3NS(C)(=O)=O)n2)c1` [Example 31], for which the concentration for half-maximal inhibition (IC50) on JAK2 was more than 10000 nM; on JAK3 it was 100 to 1000 nM. Taken in the same sequence, the figures for `CS(=O)(=O)Nc1ccccc1Nc1nc(Nc2cc(C(=O)NCCO)ccc2F)ncc1Cl` [Example 22, 3-(5-chloro-4-(2-(methylsulfonamido)phenylamino)pyrimidin-2-ylamino)-4-fluoro-N-(2-hydroxyethyl)benzamide] were 1000 to 10000 nM and less than 100 nM. For `CCNC(=O)c1ccc(Nc2ncc(Cl)c(Nc3cccc(F)c3NS(C)(=O)=O)n2)c(F)c1` [Example 60, 4-((5-chloro-4-((3-fluoro-2-(methylsulfonamido)phenyl)amino)pyrimidin-2-yl)amino)-N-ethyl-3-fluorobenzamide], in that order: more than 10000 nM and less than 100 nM. As to `CCNC(=O)c1ccc(Nc2ncc(Cl)c(Nc3ccccc3NS(C)(=O)=O)n2)c(F)c1` [Example 61, 4-((5-chloro-4-((2-(methylsulfonamido)phenyl)amino)pyrimidin-2-yl)amino)-N-ethyl-3-fluorobenzamide], the figures for the IC50 on JAK2 and at JAK3 were 1000 to 10000 nM and less than 100 nM, respectively.

Regarding `CS(=O)(=O)Nc1ccccc1Nc1nc(Nc2cc(C(N)=O)ccc2F)ncc1Cl` [Example 18, 3-(5-chloro-4-(2-(methylsulfonamido)phenylamino)pyrimidin-2-ylamino)-4-fluorobenzamide], the IC50 was more than 10000 nM on JAK2 and less than 100 nM at JAK3.

`CS(=O)(=O)Nc1ccccc1Nc1nc(Nc2ccc(C#N)cc2F)ncc1Cl` [Example 26, N-(2-(5-chloro-2-(4-cyano-2-fluorophenylamino)pyrimidin-4-ylamino)phenyl)methanesulfonamide]: the IC50 at JAK2 is more than 10000 nM; at JAK3 it was 100 to 1000 nM. As to `CCNC(=O)c1ccc(F)c(Nc2ncc(Cl)c(Nc3ccccc3NS(C)(=O)=O)n2)c1` [Example 14], the IC50 is 100 to 1000 nM on JAK2 and less than 100 nM at JAK3.

As usually defined, the IC50 is the concentration that inhibits the measured activity by half. Read a low IC50 as greater potency.
